Assay results as given in patent US10828290B2, “Thiazolecarboxamides and pyridinecarboxamide compounds useful as pim kinase inhibitors” (Incyte Corporation, priority 2013, dated 2020).
Like-named read-outs stand apart in the source and are kept apart here.

Legend:
Type in all cases: biochemical
Pim-2 = Pim-2 (Homo sapiens (Human), UniProt Q9P1W9); assay: Pim-2 kinase assay
Description: Pim-2 kinase assay—20 μL reactions were run in white 384 well polystyrene plates dotted with 0.8 μL compound/DMSO in the assay buffer (50 mM Tris, pH 7.5, 0.01% Tween-20, 5 mM MgCl2, 0.01% BSA, 5 mM DTT), containing 0.05 μM Fluorescein-labeled CREBtide peptide substrate (Invitrogen PV3508), 1 mM ATP, and 1 nM enzyme (Invitrogen PV3649) for 2 h at 25° C. Reactions were stopped by addition of 10 μL TR-FRET Dilution Buffer (Invitrogen PV3574) with 30 mM EDTA and 1.5 nM LanthaScreen Tb-CREB pSer133 antibody (Invitrogen PV3566). After 30 min. incubation at room temperature, plates were read on a PHERAstar FS plate reader (BMG Labtech).
Although the above in vitro assays are conducted at 1 mM ATP compounds can also be evaluated for potency and in vitro activity against PIM targets utilizing Km conditions, where the concentration of ATP is set to the Km value and the assay is more sensitive to PIM inhibition activity.

Pim-1 = Pim-1 (Homo sapiens (Human), UniProt P11309); assay: Pim-1 kinase assay; details: 1 mM ATP; class symbols; read-out: Pim1 IC50
Description: Supplementation of the STOP buffer with beads and stopping the reactions were done under reduced light. Prior to the stopping reactions STOP buffer with beads was pre-incubated for 1 h in the dark at room temperature. After stopping the reactions, plates were incubated for 1 h in the dark at room temperature before reading on a PHERAstar FS plate reader (BMG Labtech) under reduced light.

Pim-3 = Pim-3 (Homo sapiens (Human), UniProt Q86V86); assay: Pim-3 kinase assay; details: 1 mM ATP; class symbols; read-out: Pim3 IC50
Description: Pim-1 and Pim-3 kinase assays—20 μL reactions were run in white 384 well polystyrene plates dotted with […] in the assay buffer (50 mM Tris, pH 7.5, 0.01% Tween-20, 5 mM MgCl2, 0.01% BSA, 5 mM DTT), containing 0.05 μM Biotin-labeled BAD peptide substrate (AnaSpec 62269), 1 mM ATP, and 2.5 pM (Pim-1, Invitrogen PV3503) or 1.25 pM (Pim-3, Millipore 14-738) enzyme for 1 h at 25° C. Reactions were stopped by addition of 10 μL STOP Buffer (150 mM Tris, pH=7.5, 150 mM NaCl, 75 mM EDTA, 0.01% Tween-20, 0.3% BSA) supplemented with Phospho-Bad (Ser112) Antibody (Cell Signaling 9291) diluted 666-fold, and Streptavidin donor beads (PerkinElmer 6760002) along with Protein-A acceptor beads (PerkinElmer 6760137) at 15 μg/mL each. Supplementation of the STOP buffer with beads and stopping the reactions were done under reduced light. Prior to the stopping reactions STOP buffer with beads was pre-incubated for 1 h in the dark at room temperature. After stopping the reactions, plates were incubated for 1 h in the dark at room temperature before reading on a PHERAstar FS plate reader (BMG Labtech) under reduced light.

Pim-2, sequence (Q9P1W9 whole entry): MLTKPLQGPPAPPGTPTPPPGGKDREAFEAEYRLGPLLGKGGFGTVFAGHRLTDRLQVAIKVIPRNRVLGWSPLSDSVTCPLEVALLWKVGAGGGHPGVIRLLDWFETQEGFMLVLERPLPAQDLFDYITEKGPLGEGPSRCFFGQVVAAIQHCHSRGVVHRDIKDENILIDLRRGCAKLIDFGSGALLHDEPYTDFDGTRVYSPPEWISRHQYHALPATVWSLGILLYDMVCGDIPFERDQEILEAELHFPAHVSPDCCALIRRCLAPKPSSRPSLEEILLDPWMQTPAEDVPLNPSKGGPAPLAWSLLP
Pim-1, sequence (P11309 whole entry): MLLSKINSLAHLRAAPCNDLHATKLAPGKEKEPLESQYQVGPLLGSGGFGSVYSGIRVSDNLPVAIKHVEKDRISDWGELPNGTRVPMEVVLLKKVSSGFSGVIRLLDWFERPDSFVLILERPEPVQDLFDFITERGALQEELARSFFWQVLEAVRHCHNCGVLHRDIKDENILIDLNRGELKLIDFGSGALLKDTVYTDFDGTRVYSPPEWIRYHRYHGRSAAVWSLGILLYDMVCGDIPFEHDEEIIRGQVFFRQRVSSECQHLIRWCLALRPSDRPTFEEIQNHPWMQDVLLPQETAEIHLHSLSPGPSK

| IC50 (Pim-2; Km ATP concentration rather than 1 mM, read-out: Pim2 IC50 at Km ATP concentration) [nM] | SMILES | IC50 (Pim-1) [nM] | IC50 (Pim-2; 1 mM ATP, class symbols, read-out: Pim2 IC50) [nM] | IC50 (Pim-3) [nM] |
| --- | --- | --- | --- | --- |
| 100 to 1000 | N[C@H]1CCCN(c2c(NC(=O)c3csc(-c4c(F)cccc4F)n3)cnc3ccccc23)C1 [Example 2, N-{4-[(3S)-3-Aminopiperidin-1-yl]quinolin-3-yl}-2-(2,6-difluorophenyl)-1,3-thiazole-4-carboxamide] |  |  |  |
|  | C[C@H]1CN(c2c(NC(=O)c3ccc(F)c(-c4c(F)cccc4F)n3)cnc3c2CCC3O)C[C@@H](N)[C@@H]1O (mixture of isomers) [Example 37 (mixture of diastereoisomers), N-{4-[(3R,4R,5S)-3-Amino-4-hydroxy-5-methylpiperidin-1-yl]-7-hydroxy-6,7-dihydro-5H-cyclopenta[b]pyridin-3-yl}-6-(2,6-difluorophenyl)-5-fluoropyridine-2-carboxamide] | ≤ 100 | ≤ 100 | ≤ 100 |
